Test system: infarcted mouse hearts
Assay: Myocardial infarction model (coronary artery ligation) treated with Tβ4 or vehicle
Type: in vivo
Procedure: For in vivo studies, Western blotting, immunofluorescence and immunohistochemistry were performed using standard protocols with the following antibodies: Ki67 (Dako Cytomation), SMαA, sarcomeric α-actinin (Sigma), cardiac myosin binding protein […]-1, CD4, CD8b (all BD Pharmingen), Nkx2.5, VEGF, Tie-2 (all Santa Cruz), GAPDH, Tbx18 (both Chemicon), Isl-1 (clone 39.4D5, Developmental Studies Hybridoma Bank), Tbx18, TNFα, IL-6, IL-10, GFP (full length-detects EYFP), MCP1, cTnT, F4/80, CD45, MPO, (all abcam), Living colours Av peptide, polyclonal and mouse monoclonal JL-8 antibodies (detect EYFP, Clontech) Cx43 (Zymed) and Raldh2 (gift of P. McCaffery). Images were acquired using either a Zeiss Axiolmager with ApoTome or a Zeiss LSM 510 confocal microscope equipped with argon and helium neon lasers using a 63×/1.4 lens. Adult heart samples post myocardial infarction (MI) were kindly provided by James Clark, Cardiovascular Division, King's College London, St. Thomas' Hospital. Briefly, MI was induced in anaesthetised C57B1/6 male mice by ligation of the left anterior descending coronary artery for 30 minutes, followed by reperfusion. Animals were sacrificed one hour, one day or one week post MI and protein extracts prepared in Laemmli buffer for Western blotting and immunoassay to determine levels of Tβ4 and AcSDKP, respectively. For in vivo studies, one hour after recovery, animals received intraperitoneal injection of Tβ4 (150 μg in 0.1 ml PBS) or vehicle (0.1 ml PBS) as previously reported. Further injections were given after 2 and 4 days and hearts were harvested after 2, 4 and 7 days following ligation and prepared for western analysis and histological sectioning, as described above. Infarcts with equivalent extent of injury in the left ventricle were assessed for immunofluorescence and cell counts. […] We next determined the presence of adult EPDC-derived cardiomyocytes in vivo, in both a gain of function (intact heart) mouse model, established by intraperitoneal injection of Tβ4 or vehicle (PBS) into wild type adult mice, and an injury model of myocardial infarctions (by coronary artery ligation) in adult mice (n=27 MIs in total), treated with either Tβ4 (n=13) or vehicle (n=14, injection regimen as for gain of function; refer to Methods). Hearts were assessed using a combination of western and immunofluorescence analyses for myocardial markers after 2, 4, 7, 14 and 28 days for the gain of function model and 2, 4 and 7 days for the injury model.

[1] = infarcted hearts, 2 days of treatment, n=3, 35 fields

Substance: Thymosin β4 [Tβ4]
- TNF-α reduction vs vehicle (western) (2 days of treatment post-MI): 6.2 fold
- IL-10 increase compared to control (western) (2 days post-MI): 8.1 fold
- infarct area (Image J) (2 days post-MI, section through left ventricle wall): 0.292 mm^2
- increase in vessel area vs control (Image J) (7 days of treatment post-MI): 2 fold
- vessel area/field (7 days of treatment post-MI, n=7): 10.67+/−0.55%
- scar volume vs vehicle (trichrome) (7 days post MI): reduced scar volume
- epicardial fibrosis, share of the epicardium affected (7 days post MI, trichrome): ≤ 20%
- EPDC-derived (EYFP+) cardiomyocytes, % of total cardiomyocytes per field (Gata5-EYFP mice, 7 days treatment post-MI): 14.1%
- EYFP+ cardiomyocytes, mean number of positive cells/field +/−SEM (Gata5-EYFP mice, 7 days treatment post-MI, n=6, 38 fields): 49.53+/−4.68 cells/field
- Raldh2 up-regulation vs vehicle (western) (d2 MI): 1.8 fold
- Tbx18 up-regulation vs vehicle (western) (d2 MI): 2.8 fold
- infiltration of MPO+ neutrophils vs controls (d2 and d4 post-MI): reduced infiltration
- macrophages (F4/80+) vs vehicle (d2 post MI): elevated
- CD4:CD8 ratio (d4 post-MI): 7.4
- CD4:CD8 ratio (d7 post-MI): 10.8
- PECAM protein expression increase (western) (d7 post-MI): 9.6 fold
- SMαA protein expression increase (western) (d7 post-MI): 8.3 fold
- macrophages (F4/80+) vs vehicle (d7 post-MI): reduced
- fibroblast number (EYFP+/procollagen type I) vs control (d7 post-MI, p=0.57): did not vary significantly
- EYFP+ cardiomyocytes located in remote myocardium, % of total EYFP+ cardiomyocytes per field (day 7 post-MI, left ventricle): 40%
- EYFP+ cardiomyocytes proximal to the border zone, % of total EYFP+ cardiomyocytes per field (day 7 post-MI, left ventricle): 58%
- IL-6 reduction vs vehicle (western) (early stages post-MI): 4.1 fold
- MCP-1 up-regulation (western) (early, d2 post-MI): 3.9 fold
- proliferation of cells (Ki67) within the epicardium and subepicardial space (following MI): increase in proliferation
- Isl1 elevated levels (western) (from 2 days post-MI onwards): 5.1 fold
- Nkx2.5 elevated levels (western) (from 2 days post-MI onwards): 1.9 fold
- Raldh2+ mean number of positive cells per field +/−SEM [1]: 41.8+/−1.9 cells per field
- Tbx18+ mean number of positive cells per field +/−SEM [1]: 36.1+/−3.1 cells per field
- increase in number of endothelial (PECAM+) cells vs vehicle (infarcted hearts, 4 days): 3.5 fold
- PECAM+ number of cells per field +/−SEM (infarcted hearts, 4 days, n=3): 150.33+/−10.94 cells per field
- MCP-1 levels (in words) (initial stages post-MI): significantly reduced levels
- levels of MMP3 and -9 (post MI): reduced levels
- levels of TIMP1 and -2 (post MI): without an effect
- P-NFκB positive cells at the infarct border zone (post-MI, immunostaining): reduced number
